Laboratory results taken from paper PMC9653409, “Generative deep learning enables the discovery of a potent and selective RIPK1 inhibitor” (Nature Communications, 2022).
Like-named read-outs stand apart in the source and are kept apart here.

Legend:
Test in all cases: Kinase inhibitory activity profiling of RI-962@10 µM (406 kinases, Eurofins)
Format in all cases: biochemical
[1] = molecular target: panel of human kinases (kinase named in endpoint) (Homo sapiens, UniProt O00444); details: 10 µM; read-out: Activity (%), Plk4(h)
How it was run: (§1)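 Radiometric filter-binding kinase assays: enzyme preincubated 15 min with compound in 8 mM MOPS pH 7.0, 0.2 mM EDTA, 250 μM peptide substrate, 10 mM magnesium acetate, 10 μM [γ-33P]-ATP. Reaction started with Mg/ATP, run 40 min at room temperature, stopped with phosphoric acid; 33P incorporation read by scintillation counting. Other kinases by similar protocols.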

[2] = molecular target: panel of human kinases (kinase named in endpoint) (Homo sapiens, UniProt P00519, T315I); details: 10 µM; read-out: Activity (%), Abl(T315I)(h)
How it was run: as §1

[3] = molecular target: panel of human kinases (kinase named in endpoint) (Homo sapiens, UniProt P04626); details: 10 µM; read-out: Activity (%), ErbB2(h)
How it was run: as §1

[4] = molecular target: panel of human kinases (kinase named in endpoint) (Homo sapiens, UniProt P07333, Y969C); details: 10 µM; read-out: Activity (%), Fms(Y969C)(h)
Chain of panel of human kinases (kinase named in endpoint) (Homo sapiens, UniProt P07333, Y969C) (P07333 20-972 Y969C): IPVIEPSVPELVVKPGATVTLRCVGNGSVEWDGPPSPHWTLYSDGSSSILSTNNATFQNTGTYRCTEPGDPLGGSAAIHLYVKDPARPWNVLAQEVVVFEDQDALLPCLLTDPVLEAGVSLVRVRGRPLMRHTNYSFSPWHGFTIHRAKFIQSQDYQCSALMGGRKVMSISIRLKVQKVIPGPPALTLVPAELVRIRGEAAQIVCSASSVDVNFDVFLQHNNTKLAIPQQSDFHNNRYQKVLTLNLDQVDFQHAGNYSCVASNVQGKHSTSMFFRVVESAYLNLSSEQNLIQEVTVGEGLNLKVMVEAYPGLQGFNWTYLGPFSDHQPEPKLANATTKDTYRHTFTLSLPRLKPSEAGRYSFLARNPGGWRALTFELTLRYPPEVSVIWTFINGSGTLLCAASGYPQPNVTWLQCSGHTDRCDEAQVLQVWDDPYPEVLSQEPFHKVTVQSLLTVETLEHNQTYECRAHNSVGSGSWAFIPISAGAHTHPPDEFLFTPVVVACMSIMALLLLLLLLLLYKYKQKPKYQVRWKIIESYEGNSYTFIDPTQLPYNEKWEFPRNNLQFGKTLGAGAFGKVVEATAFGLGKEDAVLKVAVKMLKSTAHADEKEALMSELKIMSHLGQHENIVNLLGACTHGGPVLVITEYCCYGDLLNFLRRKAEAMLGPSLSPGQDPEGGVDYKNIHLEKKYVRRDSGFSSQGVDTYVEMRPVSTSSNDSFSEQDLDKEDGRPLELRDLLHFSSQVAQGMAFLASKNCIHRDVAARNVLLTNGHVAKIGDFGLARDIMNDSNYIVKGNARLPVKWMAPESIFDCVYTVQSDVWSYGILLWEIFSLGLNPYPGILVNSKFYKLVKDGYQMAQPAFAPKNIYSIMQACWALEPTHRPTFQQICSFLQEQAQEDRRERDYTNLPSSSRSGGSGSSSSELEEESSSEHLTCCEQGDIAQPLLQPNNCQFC
How it was run: as §1

[5] = molecular target: panel of human kinases (kinase named in endpoint) (Homo sapiens, UniProt P17948); details: 10 µM; read-out: Activity (%), Flt1(h)
Chain of panel of human kinases (kinase named in endpoint) (Homo sapiens, UniProt P17948) (P17948 27-1338): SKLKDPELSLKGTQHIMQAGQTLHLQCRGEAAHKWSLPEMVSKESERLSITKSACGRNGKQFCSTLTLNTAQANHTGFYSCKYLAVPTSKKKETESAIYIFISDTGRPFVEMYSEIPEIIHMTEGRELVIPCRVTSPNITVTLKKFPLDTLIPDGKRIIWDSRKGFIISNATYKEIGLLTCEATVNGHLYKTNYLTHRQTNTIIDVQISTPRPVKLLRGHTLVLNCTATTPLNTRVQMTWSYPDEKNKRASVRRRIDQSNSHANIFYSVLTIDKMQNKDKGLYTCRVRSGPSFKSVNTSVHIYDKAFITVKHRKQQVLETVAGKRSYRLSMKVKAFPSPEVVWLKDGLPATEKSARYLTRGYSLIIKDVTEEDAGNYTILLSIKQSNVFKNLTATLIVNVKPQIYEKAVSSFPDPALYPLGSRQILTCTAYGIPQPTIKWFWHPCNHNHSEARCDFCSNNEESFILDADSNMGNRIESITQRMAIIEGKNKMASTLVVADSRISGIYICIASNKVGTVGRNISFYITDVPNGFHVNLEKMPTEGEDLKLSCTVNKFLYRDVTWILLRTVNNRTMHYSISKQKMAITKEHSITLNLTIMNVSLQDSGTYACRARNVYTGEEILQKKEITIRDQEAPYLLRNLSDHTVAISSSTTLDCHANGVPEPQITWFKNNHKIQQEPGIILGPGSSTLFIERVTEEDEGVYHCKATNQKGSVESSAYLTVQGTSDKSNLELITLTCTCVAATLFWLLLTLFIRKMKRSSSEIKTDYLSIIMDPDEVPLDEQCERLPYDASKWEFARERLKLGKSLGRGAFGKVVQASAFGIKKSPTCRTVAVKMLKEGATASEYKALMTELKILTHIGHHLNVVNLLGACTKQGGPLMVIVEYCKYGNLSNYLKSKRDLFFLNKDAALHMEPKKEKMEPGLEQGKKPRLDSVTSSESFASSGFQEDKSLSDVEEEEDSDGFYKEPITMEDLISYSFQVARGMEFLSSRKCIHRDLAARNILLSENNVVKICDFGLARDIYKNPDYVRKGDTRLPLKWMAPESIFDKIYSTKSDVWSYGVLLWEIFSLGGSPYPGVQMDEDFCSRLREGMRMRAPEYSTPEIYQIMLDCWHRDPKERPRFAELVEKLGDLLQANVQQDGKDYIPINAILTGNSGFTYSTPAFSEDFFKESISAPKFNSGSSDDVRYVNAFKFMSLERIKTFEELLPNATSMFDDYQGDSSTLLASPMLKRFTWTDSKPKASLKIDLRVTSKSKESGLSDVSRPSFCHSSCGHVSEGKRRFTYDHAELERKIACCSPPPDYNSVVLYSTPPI
How it was run: as §1

[6] = molecular target: panel of human kinases (kinase named in endpoint) (Homo sapiens, UniProt P20794); details: 10 µM; read-out: Activity (%), MAK(h)
Chain of panel of human kinases (kinase named in endpoint) (Homo sapiens, UniProt P20794) (P20794 whole entry): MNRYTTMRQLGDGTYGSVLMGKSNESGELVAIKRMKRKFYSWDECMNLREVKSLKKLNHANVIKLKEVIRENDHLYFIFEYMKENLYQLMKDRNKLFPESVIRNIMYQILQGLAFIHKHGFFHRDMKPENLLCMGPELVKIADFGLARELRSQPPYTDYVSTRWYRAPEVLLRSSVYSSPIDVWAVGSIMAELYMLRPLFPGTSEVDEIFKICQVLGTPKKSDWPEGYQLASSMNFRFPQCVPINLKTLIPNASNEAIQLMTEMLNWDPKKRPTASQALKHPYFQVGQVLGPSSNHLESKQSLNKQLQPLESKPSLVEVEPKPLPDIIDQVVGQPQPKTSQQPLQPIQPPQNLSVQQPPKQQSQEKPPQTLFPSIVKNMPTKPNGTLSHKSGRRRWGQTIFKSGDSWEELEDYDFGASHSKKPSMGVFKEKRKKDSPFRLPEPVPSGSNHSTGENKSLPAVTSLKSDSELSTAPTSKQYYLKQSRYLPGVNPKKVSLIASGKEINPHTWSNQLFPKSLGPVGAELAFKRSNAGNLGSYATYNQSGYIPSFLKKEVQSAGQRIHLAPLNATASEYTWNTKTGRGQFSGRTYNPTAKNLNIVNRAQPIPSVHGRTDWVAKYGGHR
How it was run: as §1

[7] = molecular target: panel of human kinases (kinase named in endpoint) (Homo sapiens, UniProt P35968); details: 10 µM; read-out: Activity (%), KDR(h)
How it was run: as §1

[8] = molecular target: panel of human kinases (kinase named in endpoint) (Homo sapiens, UniProt P36507); details: 10 µM; read-out: Activity (%), MEK2(h)
How it was run: as §1

[9] = molecular target: panel of human kinases (kinase named in endpoint) (Homo sapiens, UniProt P45983); details: 10 µM; read-out: Activity (%), JNK1α1(h)
Chain of panel of human kinases (kinase named in endpoint) (Homo sapiens, UniProt P45983) (P45983 whole entry): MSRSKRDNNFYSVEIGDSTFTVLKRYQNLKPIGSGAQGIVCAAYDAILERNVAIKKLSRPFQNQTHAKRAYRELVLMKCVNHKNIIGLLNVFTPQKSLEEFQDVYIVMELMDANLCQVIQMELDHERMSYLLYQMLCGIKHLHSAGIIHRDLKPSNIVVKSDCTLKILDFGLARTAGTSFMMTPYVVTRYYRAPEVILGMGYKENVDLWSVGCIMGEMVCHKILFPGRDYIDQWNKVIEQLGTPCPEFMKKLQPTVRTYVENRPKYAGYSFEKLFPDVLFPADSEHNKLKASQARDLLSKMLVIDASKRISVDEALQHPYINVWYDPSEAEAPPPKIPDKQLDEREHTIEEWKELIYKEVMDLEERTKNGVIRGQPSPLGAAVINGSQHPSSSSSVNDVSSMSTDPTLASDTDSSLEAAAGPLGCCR
How it was run: as §1

[10] = molecular target: panel of human kinases (kinase named in endpoint) (Homo sapiens, UniProt P52564); details: 10 µM; read-out: Activity (%), MKK6(h)
Chain of panel of human kinases (kinase named in endpoint) (Homo sapiens, UniProt P52564) (P52564 whole entry): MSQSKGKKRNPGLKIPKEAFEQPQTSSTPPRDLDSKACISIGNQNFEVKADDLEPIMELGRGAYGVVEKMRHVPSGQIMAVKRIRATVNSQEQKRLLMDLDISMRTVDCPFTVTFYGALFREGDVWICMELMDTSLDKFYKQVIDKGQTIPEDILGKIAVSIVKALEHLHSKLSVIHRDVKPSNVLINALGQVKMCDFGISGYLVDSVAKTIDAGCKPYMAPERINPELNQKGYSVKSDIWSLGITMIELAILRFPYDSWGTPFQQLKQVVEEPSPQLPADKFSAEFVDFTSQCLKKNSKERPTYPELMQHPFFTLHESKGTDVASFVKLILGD
How it was run: as §1

[11] = molecular target: panel of human kinases (kinase named in endpoint) (Homo sapiens, UniProt P53778); details: 10 µM; read-out: Activity (%), SAPK3(h)
How it was run: as §1

[12] = molecular target: panel of human kinases (kinase named in endpoint) (Homo sapiens, UniProt P57059); details: 10 µM; read-out: Activity (%), SIK(h)
How it was run: as §1

[13] = molecular target: panel of human kinases (kinase named in endpoint) (Homo sapiens, UniProt P68400); details: 10 µM
Chain of panel of human kinases (kinase named in endpoint) (Homo sapiens, UniProt P68400) (P68400 whole entry): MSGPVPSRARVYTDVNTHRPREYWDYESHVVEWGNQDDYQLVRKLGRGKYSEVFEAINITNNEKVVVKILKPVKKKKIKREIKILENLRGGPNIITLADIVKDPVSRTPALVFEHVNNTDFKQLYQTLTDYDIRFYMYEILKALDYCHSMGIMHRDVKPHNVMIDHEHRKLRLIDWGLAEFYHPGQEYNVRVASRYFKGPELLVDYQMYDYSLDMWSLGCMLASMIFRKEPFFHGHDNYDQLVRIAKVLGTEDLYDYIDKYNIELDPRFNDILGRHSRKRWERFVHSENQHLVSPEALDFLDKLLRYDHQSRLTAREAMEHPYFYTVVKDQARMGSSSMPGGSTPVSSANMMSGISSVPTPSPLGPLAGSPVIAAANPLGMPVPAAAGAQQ
How it was run: as §1

[14] = molecular target: panel of human kinases (kinase named in endpoint) (Homo sapiens, UniProt Q00536); details: 10 µM; read-out: Activity (%), CDK16/cyclinY(h)
How it was run: as §1

[15] = molecular target: panel of human kinases (kinase named in endpoint) (Homo sapiens, UniProt Q13315); details: 10 µM; read-out: Activity (%), ATM(h)
How it was run: as §1

[16] = molecular target: panel of human kinases (kinase named in endpoint) (Homo sapiens, UniProt Q13976); details: 10 µM; read-out: Activity (%), PKG1α(h)
How it was run: as §1

[17] = molecular target: panel of human kinases (kinase named in endpoint) (Homo sapiens, UniProt Q15303); details: 10 µM; read-out: Activity (%), ErbB4(h)
How it was run: as §1

[18] = molecular target: panel of human kinases (kinase named in endpoint) (Homo sapiens, UniProt Q15835); details: 10 µM; read-out: Activity (%), GRK1(h)
How it was run: as §1

[19] = molecular target: panel of human kinases (kinase named in endpoint) (Homo sapiens, UniProt Q16644); details: 10 µM; read-out: Activity (%), MAPKAP-K3(h)
Chain of panel of human kinases (kinase named in endpoint) (Homo sapiens, UniProt Q16644) (Q16644 whole entry): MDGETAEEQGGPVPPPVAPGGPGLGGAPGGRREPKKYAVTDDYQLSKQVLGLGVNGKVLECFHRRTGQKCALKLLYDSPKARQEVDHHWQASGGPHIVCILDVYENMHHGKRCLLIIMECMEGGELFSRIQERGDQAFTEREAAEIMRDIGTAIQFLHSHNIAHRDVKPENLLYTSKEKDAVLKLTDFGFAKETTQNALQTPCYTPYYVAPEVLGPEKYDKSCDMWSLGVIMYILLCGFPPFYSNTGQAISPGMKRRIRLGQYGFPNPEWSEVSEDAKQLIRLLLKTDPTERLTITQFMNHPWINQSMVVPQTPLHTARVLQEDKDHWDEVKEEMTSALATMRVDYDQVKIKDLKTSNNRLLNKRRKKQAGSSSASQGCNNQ
How it was run: as §1

[20] = molecular target: panel of human kinases (kinase named in endpoint) (Homo sapiens, UniProt Q8IY84); details: 10 µM; read-out: Activity (%), NIM1(h)
How it was run: as §1

[21] = molecular target: panel of human kinases (kinase named in endpoint) (Homo sapiens, UniProt Q96J92); details: 10 µM; read-out: Activity (%), WNK4(h)
How it was run: as §1

[22] = molecular target: panel of human kinases (kinase named in endpoint) (Homo sapiens, UniProt Q96PN8); details: 10 µM; read-out: Activity (%), TSSK3(h)
How it was run: as §1

[23] = molecular target: panel of human kinases (kinase named in endpoint) (Homo sapiens, UniProt Q9BZL6); details: 10 µM; read-out: Activity (%), PKD2(h)
How it was run: as §1

[24] = molecular target: panel of human kinases (kinase named in endpoint) (Homo sapiens, UniProt Q9H2G2); details: 10 µM; read-out: Activity (%), SLK(h)
How it was run: as §1

[25] = molecular target: panel of human kinases (kinase named in endpoint) (Homo sapiens, UniProt Q9H422); details: 10 µM; read-out: Activity (%), HIPK3(h)
How it was run: as §1

[26] = molecular target: panel of human kinases (kinase named in endpoint) (Homo sapiens, UniProt Q9Y463); details: 10 µM; read-out: Activity (%), DYRK1B(h)
Chain of panel of human kinases (kinase named in endpoint) (Homo sapiens, UniProt Q9Y463) (Q9Y463 whole entry): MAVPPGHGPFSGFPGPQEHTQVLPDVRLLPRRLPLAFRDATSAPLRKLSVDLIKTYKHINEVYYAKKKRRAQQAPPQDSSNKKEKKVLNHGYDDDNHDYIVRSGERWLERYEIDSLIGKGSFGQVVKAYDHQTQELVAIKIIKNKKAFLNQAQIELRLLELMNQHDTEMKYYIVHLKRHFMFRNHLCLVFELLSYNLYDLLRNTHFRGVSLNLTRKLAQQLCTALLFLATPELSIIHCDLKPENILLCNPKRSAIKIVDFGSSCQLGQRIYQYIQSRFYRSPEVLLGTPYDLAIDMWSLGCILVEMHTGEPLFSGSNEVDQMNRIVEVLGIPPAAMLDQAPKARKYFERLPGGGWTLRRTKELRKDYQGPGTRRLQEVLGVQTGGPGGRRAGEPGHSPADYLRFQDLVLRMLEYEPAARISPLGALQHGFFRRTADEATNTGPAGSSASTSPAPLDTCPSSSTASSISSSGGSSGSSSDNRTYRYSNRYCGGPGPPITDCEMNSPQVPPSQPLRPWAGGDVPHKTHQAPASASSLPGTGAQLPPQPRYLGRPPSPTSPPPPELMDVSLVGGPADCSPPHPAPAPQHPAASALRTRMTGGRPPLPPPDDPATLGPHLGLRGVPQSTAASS
How it was run: as §1

Which activity at 10 µM [1] does the source give for `CC(C)C(=O)Nc1nc2cc(-c3ccc4c(c3)c(C(=O)NC(C)c3ccccc3)cn4C)ccn2n1` (stereo not drawn) [RI-962] here?
Its activity at 10 µM is 88%.

What about the activity at 10 µM [2] of the same compound?
Its activity at 10 µM is 132%.

And the activity at 10 µM [3]?
The activity at 10 µM was 104%.

And the activity at 10 µM [4]?
Its activity at 10 µM is 73%.

What about the activity at 10 µM [5] of the same compound?
Its activity at 10 µM is 85%.

What about the activity at 10 µM [6] of the same compound?
Its activity at 10 µM is 126%.

What about the activity at 10 µM [7] of the same compound?
Its activity at 10 µM is 92%.

And the activity at 10 µM [8]?
The activity at 10 µM was 86%.

What about the activity at 10 µM [9] of the same compound?
The activity at 10 µM was 99%.

And the activity at 10 µM [10]?
Its activity at 10 µM is 97%.

What about the activity at 10 µM [11] of the same compound?
The activity at 10 µM was 100%.

And the activity at 10 µM [12]?
Its activity at 10 µM is 137%.

What about the activity at 10 µM ([13]; read-out: Activity (%), CK2(h)) of the same compound?
Its activity at 10 µM is 91%.

What about the activity at 10 µM ([13]; read-out: Activity (%), CK2α1(h)) of the same compound?
Its activity at 10 µM is 94%.

And the activity at 10 µM [14]?
The activity at 10 µM was 121%.

What about the activity at 10 µM [15] of the same compound?
Its activity at 10 µM is 85%.

What about the activity at 10 µM [16] of the same compound?
The activity at 10 µM was 101%.

What about the activity at 10 µM [17] of the same compound?
Its activity at 10 µM is 98%.

And the activity at 10 µM [18]?
The activity at 10 µM was 111%.

What about the activity at 10 µM [19] of the same compound?
The activity at 10 µM was 98%.

What about the activity at 10 µM [20] of the same compound?
The activity at 10 µM was 88%.

What about the activity at 10 µM [21] of the same compound?
The activity at 10 µM was 80%.

And the activity at 10 µM [22]?
Its activity at 10 µM is 94%.

And the activity at 10 µM [23]?
The activity at 10 µM was 98%.

What about the activity at 10 µM [24] of the same compound?
The activity at 10 µM was 84%.

What about the activity at 10 µM [25] of the same compound?
The activity at 10 µM was 89%.

And the activity at 10 µM [26]?
The activity at 10 µM was 100%.
